Test results taken from patent US9533986B2, “Bicyclic dihydropyridone kinase inhibitors” (PORTOLA PHARMACEUTICALS, INC., priority 2012, dated 2017).

Molecular target: T1, full length active recombinant SYK enzyme (Homo sapiens, UniProt P43405)
T1 construct: full length active recombinant SYK enzyme (Millipore, Calif.); purchased Millipore
Assay: Inhibition of Syk tyrosine phosphorylation activity (LANCE TR-FRET kinase assay)
Format: biochemical
Settings: 1 nM active SYK enzyme, 550 nM SYK-substrate, 100 μM ATP, 1 hour at room temperature
Protocol: The in vitro and in vivo human JAK/Syk activities of the inventive compounds can be determined by various procedures known in the art, such as a test for their ability to inhibit the activity of human plasma JAK/Syk. […] The IC50 value is the concentration of the compound required to provide 50% inhibition of human JAK/Syk proteolytic activity.
An in vitro assay for detecting and measuring inhibition activity against Syk is as follows.
SYK tyrosine phosphorylation activity is measured using the LANCE™ Technology developed by Perkin Elmer Life and Analytical Sciences (Boston, Mass.). LANCE™ refers to homogeneous time resolved fluorometry applications using techniques such as time-resolved fluorescence resonance energy transfer assay (TR-FRET) (see generally for procedures in Perkin Elmer Application Note—How to Optimize a Tyrosine Kinase Assay Using Time Resolved Fluorescence-Based LANCE Detection, wwww.perkinelmer.com/lifesciences). The assay principle involves detection of a phosphorylated substrate using energy transfer from a phosphospecific europium-labeled antibody to streptavidin-allophycocyanin as an acceptor.
Molecules are reconstituted in 30% DMSO and serially diluted 1:3 with the final dilution containing DMSO in the absence of the candidate molecule. The final DMSO concentration in the assay is 3%. Kinase assays are performed as a two part reaction. The first reaction is a kinase reaction which comprises a candidate molecule, full length active recombinant SYK enzyme (Millipore, Calif.), and biotin-DEEDYESP-OH, a biotin-labeled SYK-specific substrate. The second reaction involves termination of the kinase reaction and the simultaneous addition of the detection reagents—europium-labeled anti-phosphotyrosine reagent (Eu-W1024-PY100, Perkin Elmer, Boston, Mass.) and Streptavidin-Allophycocyanin detection reagent (SA-APC, Prozyme, CA). The kinase reaction is performed in a black U-bottom 96-well microtitre plate. The final reaction volume is 50 μL and contains a final concentration of 1 nM active SYK enzyme, 550 nM SYK-substrate, and 100 μM ATP diluted in a buffer containing 50 mM Tris pH 7.5, 5 mM MgCl2, and 1 mM DTT. The reaction is allowed to proceed for 1 hour at room temperature. The quench buffer contains 100 mM Tris pH 7.5, 300 mM NaCl2, 20 mM EDTA, 0.02% Brij35, and 0.5% BSA. […] Detection of the phosphorylated substrate in the absence and presence of inhibitors is measured in the TR-FRET instrument, Analyst HT (Molecular Probes, Sunnyvale, Calif.) and the condition for measurements are set using CriterionHost Release 2.0 (Molecular Probes, Sunnyvale, Calif.). […] Inhibition of SYK-tyrosine kinase activity is calculated as the maximum response observed in the presence of inhibitor, compared to that in the absence of inhibitor. […]

IC50	SMILES
≤ 100 nM	N[C@H]1CCCC[C@H]1Nc1nc2c(c(Nc3cccc(-n4nccn4)c3)n1)C(=O)NCC2 [Example 6, 4-((3-(2H-1,2,3-triazol-2-yl)phenyl)amino)-2-(((1R,2S)-2-aminocyclohexyl)amino)-7,8-dihydropyrido[4,3-d]pyrimidin-5(6H)-one]
≤ 100 nM	Cc1cccc(Nc2nc(N[C@@H]3CCCC[C@@H]3N)nc3c2C(=O)NCC3)c1 [Example 1, 2-(((1R,2S)-2-aminocyclohexyl)amino)-4-(m-tolylamino)-7,8-dihydropyrido[4,3-d]pyrimidin-5(6H)-one]
≤ 250 nM	N[C@H]1CCCC[C@H]1Nc1nc2c(c(Nc3cccc(-c4ncccn4)c3)n1)C(=O)NCC2 [Example 4, 2-(((1R,2S)-2-aminocyclohexyl)amino)-4-((3-(pyrimidin-2-yl)phenyl)amino)-7,8-dihydropyrido[4,3-d]pyrimidin-5(6H)-one]
> 250 nM	COc1ccc(Nc2nc(N[C@@H]3CCCC[C@@H]3N)nc3c2C(=O)NCC3)cc1C(F)(F)F [Example 7, 2-(((1R,2S)-2-aminocyclohexyl)amino)-4-((4-methoxy-3-(trifluoromethyl)phenyl)amino)-7,8-dihydropyrido[4,3-d]pyrimidin-5(6H)-one]
